Data on 24 compounds can be found in ChEMBL document CHEMBL3991601, “The target landscape of clinical kinase drugs” (Science, 2017).

Calls of active or inactive are those of the source. Cut-off read from the data, not from the text of the source: actives have a measured Kd and inactives only a lower limit.

Experiment [1] addresses T1, Discoidin domain-containing receptor 2 (Homo sapiens, UniProt Q16832).
T1 sequence (Q16832 whole entry): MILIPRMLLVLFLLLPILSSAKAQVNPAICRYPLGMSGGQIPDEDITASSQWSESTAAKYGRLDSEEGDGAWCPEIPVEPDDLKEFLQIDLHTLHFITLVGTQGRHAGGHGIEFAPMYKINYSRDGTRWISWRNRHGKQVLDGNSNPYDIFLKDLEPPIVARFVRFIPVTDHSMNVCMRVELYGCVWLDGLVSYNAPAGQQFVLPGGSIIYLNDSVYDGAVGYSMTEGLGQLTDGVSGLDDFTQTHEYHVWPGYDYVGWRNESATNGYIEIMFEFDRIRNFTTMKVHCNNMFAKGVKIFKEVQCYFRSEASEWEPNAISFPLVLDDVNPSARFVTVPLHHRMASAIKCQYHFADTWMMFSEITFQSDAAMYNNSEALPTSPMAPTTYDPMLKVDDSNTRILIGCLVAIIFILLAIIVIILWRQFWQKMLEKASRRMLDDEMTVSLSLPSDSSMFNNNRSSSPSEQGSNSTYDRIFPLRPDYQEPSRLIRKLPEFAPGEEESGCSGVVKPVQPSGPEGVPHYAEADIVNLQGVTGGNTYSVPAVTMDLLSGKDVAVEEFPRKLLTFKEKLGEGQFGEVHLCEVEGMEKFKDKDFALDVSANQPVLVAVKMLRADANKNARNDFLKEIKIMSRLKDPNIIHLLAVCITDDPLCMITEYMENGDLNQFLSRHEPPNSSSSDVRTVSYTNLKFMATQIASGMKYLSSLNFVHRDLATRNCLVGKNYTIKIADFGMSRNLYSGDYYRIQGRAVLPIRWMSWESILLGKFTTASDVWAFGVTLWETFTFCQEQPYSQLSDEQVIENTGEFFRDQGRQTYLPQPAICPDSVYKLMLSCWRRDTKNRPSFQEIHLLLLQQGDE

In another experiment the target is T2, Ephrin type-B receptor 6 (Homo sapiens, UniProt O15197).
T2 sequence (O15197 whole entry): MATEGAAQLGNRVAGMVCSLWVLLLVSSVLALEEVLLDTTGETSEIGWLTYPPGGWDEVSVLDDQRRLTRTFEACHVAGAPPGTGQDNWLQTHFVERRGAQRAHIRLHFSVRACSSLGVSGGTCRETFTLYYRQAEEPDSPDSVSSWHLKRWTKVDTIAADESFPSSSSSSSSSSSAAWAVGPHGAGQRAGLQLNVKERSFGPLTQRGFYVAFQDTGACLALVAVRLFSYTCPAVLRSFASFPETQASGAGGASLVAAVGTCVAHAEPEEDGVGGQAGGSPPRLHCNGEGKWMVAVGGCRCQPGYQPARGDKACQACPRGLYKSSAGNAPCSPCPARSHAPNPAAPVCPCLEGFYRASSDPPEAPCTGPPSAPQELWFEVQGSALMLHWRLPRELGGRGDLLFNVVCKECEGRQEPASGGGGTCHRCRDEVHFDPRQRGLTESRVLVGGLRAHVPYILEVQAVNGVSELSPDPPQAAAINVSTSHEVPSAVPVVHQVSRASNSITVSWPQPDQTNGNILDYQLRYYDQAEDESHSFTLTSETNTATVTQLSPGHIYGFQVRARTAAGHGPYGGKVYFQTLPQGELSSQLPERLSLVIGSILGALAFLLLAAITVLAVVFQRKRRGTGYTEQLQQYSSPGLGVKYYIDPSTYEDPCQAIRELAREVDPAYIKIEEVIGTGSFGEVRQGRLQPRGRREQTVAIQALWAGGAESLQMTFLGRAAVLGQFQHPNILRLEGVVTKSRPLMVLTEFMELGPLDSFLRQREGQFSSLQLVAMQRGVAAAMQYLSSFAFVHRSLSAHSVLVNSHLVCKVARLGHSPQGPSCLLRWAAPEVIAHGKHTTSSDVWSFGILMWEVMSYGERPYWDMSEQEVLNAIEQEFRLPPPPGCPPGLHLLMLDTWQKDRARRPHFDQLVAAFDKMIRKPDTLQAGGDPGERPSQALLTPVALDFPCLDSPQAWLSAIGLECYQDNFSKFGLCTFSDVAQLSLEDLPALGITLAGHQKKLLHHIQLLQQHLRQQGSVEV

The target of experiment [2] is T3, Receptor-type tyrosine-protein kinase FLT3 (Homo sapiens, UniProt P36888).
T3 sequence (P36888 whole entry): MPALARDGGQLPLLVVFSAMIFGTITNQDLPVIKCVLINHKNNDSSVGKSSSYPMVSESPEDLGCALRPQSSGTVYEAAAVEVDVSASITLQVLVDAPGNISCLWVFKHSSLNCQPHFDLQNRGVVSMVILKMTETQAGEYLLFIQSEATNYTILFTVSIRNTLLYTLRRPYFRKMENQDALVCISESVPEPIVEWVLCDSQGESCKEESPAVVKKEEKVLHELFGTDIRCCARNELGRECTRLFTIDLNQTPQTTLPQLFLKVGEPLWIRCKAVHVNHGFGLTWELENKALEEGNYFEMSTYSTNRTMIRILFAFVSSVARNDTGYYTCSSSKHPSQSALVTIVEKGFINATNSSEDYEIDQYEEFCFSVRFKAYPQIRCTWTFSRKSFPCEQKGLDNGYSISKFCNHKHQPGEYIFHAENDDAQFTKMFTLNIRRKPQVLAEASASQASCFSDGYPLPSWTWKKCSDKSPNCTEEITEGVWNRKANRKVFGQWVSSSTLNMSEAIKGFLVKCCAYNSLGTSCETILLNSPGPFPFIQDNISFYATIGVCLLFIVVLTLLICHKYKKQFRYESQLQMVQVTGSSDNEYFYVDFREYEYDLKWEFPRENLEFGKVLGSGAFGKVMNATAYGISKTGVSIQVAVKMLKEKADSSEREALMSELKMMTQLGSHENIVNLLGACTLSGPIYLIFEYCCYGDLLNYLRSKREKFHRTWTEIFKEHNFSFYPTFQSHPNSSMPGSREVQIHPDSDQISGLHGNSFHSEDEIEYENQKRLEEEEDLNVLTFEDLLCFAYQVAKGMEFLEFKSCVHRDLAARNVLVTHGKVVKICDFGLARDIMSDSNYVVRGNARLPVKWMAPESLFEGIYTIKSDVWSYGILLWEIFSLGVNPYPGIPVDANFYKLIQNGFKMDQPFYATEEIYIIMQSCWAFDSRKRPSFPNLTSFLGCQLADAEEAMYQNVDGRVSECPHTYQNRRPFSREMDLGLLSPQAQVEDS

In experiment [3] the target is Mitogen-activated protein kinase kinase kinase kinase 5 (Homo sapiens, UniProt Q9Y4K4).
Note: in the data inactive means no Kd found up to 30 µM.

Chain of Mitogen-activated protein kinase kinase kinase kinase 5 (Q9Y4K4 whole entry): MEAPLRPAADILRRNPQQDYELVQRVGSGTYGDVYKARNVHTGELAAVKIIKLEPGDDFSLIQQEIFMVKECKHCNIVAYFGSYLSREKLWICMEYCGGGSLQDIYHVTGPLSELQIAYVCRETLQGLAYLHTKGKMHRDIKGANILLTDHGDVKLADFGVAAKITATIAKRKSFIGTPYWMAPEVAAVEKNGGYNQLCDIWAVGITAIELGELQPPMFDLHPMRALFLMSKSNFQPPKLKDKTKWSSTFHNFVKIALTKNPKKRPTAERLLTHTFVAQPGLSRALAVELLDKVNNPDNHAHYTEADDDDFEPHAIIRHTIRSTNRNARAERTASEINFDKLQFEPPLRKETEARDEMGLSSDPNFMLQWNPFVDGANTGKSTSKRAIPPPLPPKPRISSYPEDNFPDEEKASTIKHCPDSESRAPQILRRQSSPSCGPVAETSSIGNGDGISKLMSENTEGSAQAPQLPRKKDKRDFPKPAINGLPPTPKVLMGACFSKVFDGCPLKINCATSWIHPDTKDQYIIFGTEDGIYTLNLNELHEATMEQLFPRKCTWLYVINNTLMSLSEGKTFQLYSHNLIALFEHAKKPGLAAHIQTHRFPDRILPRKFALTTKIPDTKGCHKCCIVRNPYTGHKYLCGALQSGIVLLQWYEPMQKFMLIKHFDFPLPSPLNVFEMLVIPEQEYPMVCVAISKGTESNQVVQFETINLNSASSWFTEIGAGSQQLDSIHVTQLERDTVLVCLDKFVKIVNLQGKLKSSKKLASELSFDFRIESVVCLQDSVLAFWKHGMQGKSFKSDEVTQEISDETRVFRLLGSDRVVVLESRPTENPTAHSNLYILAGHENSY

What is called Kd is the free concentration of one partner at which half of the binding sites on the other are occupied at equilibrium, for simple one-to-one binding. In the case of `C[C@@H](Oc1cc(C(=O)Nc2ccc(C(=O)N3CCN(C)CC3)cc2)nnc1N)c1c(Cl)ccc(F)c1Cl`, the Kd in experiment [1] is > 30 µM (inactive); on Ephrin type-B receptor 6 it was > 30 µM (inactive); in experiment [2] it was > 30 µM (inactive); in experiment [3] it was 20.9 µM (active).
As to `C[C@H]1CNCCCN1S(=O)(=O)c1cccc2cncc(F)c12`, the Kd (in experiment [1]; on Ephrin type-B receptor 6; in experiment [2]; in experiment [3]) was > 30 µM (inactive) each time.
In the case of `CC(=O)c1cnc2ccc(-c3cc(Cl)c(O)c(Cl)c3)nc2c1N[C@H]1CC[C@H](CN(C)C)CC1`, the Kd in experiment [1] was 2.28 µM (active); on Ephrin type-B receptor 6 it was 0.521 µM (active); in experiment [2], > 30 µM (inactive); in experiment [3], 0.071 µM (active).
As for `CCNC(=O)C#Cc1ccc2c(c1)NC(=O)/C2=C(\Nc1ccc(CN(C)C)cc1)c1ccccc1`, the Kd was > 30 µM (inactive) at Ephrin type-B receptor 6, 0.148 µM (active) in experiment [2] and 1.36 µM (active) in experiment [3].
With `C=CC(=O)N1CCC[C@H](n2c(=O)n(-c3ccc(Oc4ccccc4)cc3)c3c(N)ncnc32)C1`, the Kd (in experiment [1]; on Ephrin type-B receptor 6; in experiment [2]; in experiment [3]) was > 30 µM (inactive) throughout.
For `Cc1nc2cc(-c3nn(C(C)C)c4ncnc(N)c34)ccc2o1`, the Kd in experiment [1] was 0.139 µM (active); at Ephrin type-B receptor 6, > 30 µM (inactive); in experiment [2] it was 7.04 µM (active); in experiment [3], > 30 µM (inactive).
For `COCc1c(-c2ccc(NC(=O)Nc3cc(C(F)(F)F)ccc3F)c(F)c2)c2c(N)ncnn2c1CN1CCOCC1`, the Kd in experiment [1] is 3.25 µM (active); on Ephrin type-B receptor 6, > 30 µM (inactive); in experiment [2], 0.465 µM (active); in experiment [3], > 30 µM (inactive).
For `Nc1ncnc2c1c(-c1cccc(OCc3ccccc3)c1)cn2[C@H]1C[C@@H](CN2CCC2)C1` [AEW-541], the Kd in experiment [1] was > 30 µM (inactive); at Ephrin type-B receptor 6, > 30 µM (inactive); in experiment [2] it was > 30 µM (inactive); in experiment [3] it was 2.49 µM (active).
`COc1cc(Nc2ncc3c(n2)-c2ccc(Cl)cc2C(c2c(F)cccc2OC)=NC3)ccc1C(=O)O` [ALISERTIB]: the Kd (in experiment [1]; on Ephrin type-B receptor 6) was > 30 µM (inactive) in each case.
In the case of `Cc1nc(NC(=O)N2CCC[C@H]2C(N)=O)sc1-c1ccnc(C(C)(C)C(F)(F)F)c1` [ALPELISIB], the Kd (in experiment [1]; at Ephrin type-B receptor 6; in experiment [2]; in experiment [3]) was > 30 µM (inactive) in each case.
As to `Cc1csc(-c2nnc(Nc3ccc(Oc4ncccc4-c4ccnc(N)n4)cc3)c3ccccc23)c1` [AMG-900], the dissociation constant (Kd) in experiment [1] is 0.298 µM (active); at Ephrin type-B receptor 6, > 30 µM (inactive); in experiment [2] it was > 30 µM (inactive); in experiment [3] it was 1.71 µM (active).
As for `O=C(Nc1c[nH]nc1-c1nc2cc(CN3CCOCC3)ccc2[nH]1)NC1CC1` [AT-9283], the Kd is > 30 µM (inactive) in experiment [1] and 0.012 µM (active) at Ephrin type-B receptor 6.
Turning to `C=CC(=O)Nc1cc2c(Nc3ccc(F)c(Cl)c3)ncnc2cc1C#CC(C)(C)N1CCN(C)CC1` [AV-412 FREE BASE], the Kd (in experiment [1]; at Ephrin type-B receptor 6; in experiment [2]; in experiment [3]) was > 30 µM (inactive) throughout.
As to `COc1cc([C@@H]2c3cc4c(cc3[C@H](O)[C@H]3COC(=O)[C@@H]23)OCO4)cc(OC)c1OC` [AXL-1717], the Kd (in experiment [1]; at Ephrin type-B receptor 6; in experiment [2]; in experiment [3]) was > 30 µM (inactive) in each case.
In the case of `NC(=O)Nc1cc(-c2cccc(F)c2)sc1C(=O)N[C@H]1CCCNC1` [AZD-7762], the results for the Kd in experiment [1], in experiment [2] and in experiment [3] were > 30 µM (inactive), > 30 µM (inactive) and 0.197 µM (active), respectively.
Consider `CC(C)(C)c1nc(-c2cccc(NS(=O)(=O)c3c(F)cccc3F)c2F)c(-c2ccnc(N)n2)s1` [DABRAFENIB], for which the Kd is > 30 µM (inactive) in experiment [1], 0.412 µM (active) at Ephrin type-B receptor 6 and > 30 µM (inactive) in experiment [3].
`CCn1cc(-c2ccnc3[nH]c(-c4cccc(CN(C)C)c4)cc23)c(-c2ccc(NC(=O)N(C)C)cc2)n1` [GSK-1070916]: the Kd in experiment [1] was 1.27 µM (active); at Ephrin type-B receptor 6 it was 3.77 µM (active); in experiment [3], > 30 µM (inactive).
The matching figures for `O=C(Nc1cc(C(F)(F)F)cc(C(F)(F)F)c1)c1cc(Cl)ccc1O` [IMD-0354]: > 30 µM (inactive), > 30 µM (inactive) and 1.46 µM (active).
Turning to `Cc1[nH]c(/C=C2\C(=O)Nc3ccccc32)c(C)c1CCC(=O)O` [ORANTINIB], the Kd in experiment [1] is > 30 µM (inactive).
Consider `NC(=O)c1c(OCc2c(F)cc(Br)cc2F)nsc1NC(=O)NCCCCN1CCCC1` [OSI-632], for which the equilibrium dissociation constant (Kd) was 0.669 µM (active) in experiment [1] and 0.226 µM (active) on Ephrin type-B receptor 6.
The like results for `CC(=O)NCC(=O)N1[C@@H]2CC[C@H]1c1ccc(Nc3ncc(C(F)(F)F)c(NC4CCC4)n3)cc12` [PF-03814735] were, in that order, > 30 µM (inactive) and > 30 µM (inactive).
For the compound `CNC(=O)c1cc(Oc2ccc(NC(=O)Nc3cc(C(C)(C)C)nn3-c3ccc4ncccc4c3)c(F)c2)ccn1` [REBASTINIB], on Ephrin type-B receptor 6, the Kd is > 30 µM (inactive).
For the compound `CN1CCN(CCOc2cc(OC3CCOCC3)c3c(Nc4c(Cl)ccc5c4OCO5)ncnc3c2)CC1` [SARACATINIB], the values for the Kd (on Ephrin type-B receptor 6; in experiment [2]; in experiment [3]) were 3.6 µM (active), 0.14 µM and 27.1 µM, respectively.
The matching figures for `CCS(=O)(=O)c1cccc(-c2cc(C(=O)NC3CCN(C)CC3)c(C)c3[nH]c4ncc(C)cc4c23)c1` [TAK-901]: 0.451 µM, 0.554 µM and 5.36 µM (active).
